Reference: ChEMBL document CHEMBL4118223, “New TRAP1 and Hsp90 chaperone inhibitors with cationic components: Preliminary studies on mitochondrial targeting” (Bioorg Med Chem Lett, 2018)
The source made the active and inactive calls. The rule behind the calls is not given here.

How the values were obtained:
[1] = biological target: T1, Heat shock protein 75 kDa, mitochondrial (Homo sapiens, UniProt Q12931)
T1 sequence (Q12931 whole entry): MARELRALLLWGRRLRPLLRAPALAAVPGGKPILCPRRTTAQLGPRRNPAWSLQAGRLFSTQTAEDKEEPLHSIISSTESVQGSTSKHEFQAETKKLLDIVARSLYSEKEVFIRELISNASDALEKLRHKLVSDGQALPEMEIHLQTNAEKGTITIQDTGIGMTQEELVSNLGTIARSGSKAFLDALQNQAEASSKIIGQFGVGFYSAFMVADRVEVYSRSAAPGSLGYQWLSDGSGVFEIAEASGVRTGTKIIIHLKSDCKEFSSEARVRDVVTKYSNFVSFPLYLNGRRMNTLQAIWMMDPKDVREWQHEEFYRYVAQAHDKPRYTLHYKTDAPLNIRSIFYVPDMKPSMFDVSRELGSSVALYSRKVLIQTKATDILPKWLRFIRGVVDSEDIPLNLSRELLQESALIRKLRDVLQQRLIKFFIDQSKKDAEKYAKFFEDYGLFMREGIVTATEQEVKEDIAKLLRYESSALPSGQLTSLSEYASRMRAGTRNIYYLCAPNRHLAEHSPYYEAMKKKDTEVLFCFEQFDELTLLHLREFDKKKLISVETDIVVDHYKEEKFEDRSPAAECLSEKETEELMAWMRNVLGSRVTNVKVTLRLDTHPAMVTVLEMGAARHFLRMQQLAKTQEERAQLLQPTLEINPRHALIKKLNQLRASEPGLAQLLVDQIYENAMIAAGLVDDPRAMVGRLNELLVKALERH
Description: Inhibition of recombinant human N-terminal His6-tagged TRAP1 (60 to 704 residues) ATPase activity expressed in Escherichia coli BL21-CodonPlus-RIL after overnight incubation by BioMol green dye-based assay

[2] = Drug uptake in mitochondria of human HCT116 cells at 1 uM after 12 hrs by mass spectrometric analysis; assay type: ADME; settings: hct-116, 12 h
HCT-116 [3] = test: Antiproliferative activity against human HCT116 cells after 24 hrs by MTT assay; assay type: functional, cell-based; settings: HCT-116, 24 h
[4] = Drug uptake in cytosol of human HCT116 cells at 1 uM after 12 hrs by mass spectrometric analysis; assay type: ADME, subcellular, HCT-116
HCT-116 [5] = test: Induction of apoptosis in human HCT116 cells at 10 uM after 24 hrs by FITC/Annexin-V/7-AAD staining-based FACS analysis; assay type: functional, cell-based
HCT-116 [6] = test: Induction of apoptosis in human HCT116 cells at 0.1 to 10 uM after 24 hrs by FITC/Annexin-V/7-AAD staining-based FACS analysis; assay type: functional, cell-based
[7] = biological target: Heat shock protein HSP 90-alpha (Homo sapiens, UniProt P07900); test: Inhibition of FITC-geldanamycin binding to recombinant human HSP90alpha expressed in Escherichia coli by fluorescence anisotropy method
HCT-116 [8] = test: Induction of apoptosis in human HCT116 cells at 1 to 10 uM after 24 hrs by FITC/Annexin-V/7-AAD staining-based FACS analysis; assay type: functional, cell-based

Question: What does the source list for `CCNC(=O)c1noc(-c2cc(C(C)C)c(O)cc2O)c1NC(=O)CCCCCCc1ccc(C(=O)NC(=N)N)cc1`?
Answer: IC50 [1]: 3 µM; Drug uptake [2]: Active; IC50 (HCT-116 [3]): 6.17 µM; Drug uptake [4]: Not Active

Question: For `CCNC(=O)c1noc(-c2cc(C(C)C)c(O)cc2O)c1NC(=O)CCN1CCOCC1`, which IC50 [1] is on record?
Answer: 20 µM

Question: For `CCNC(=O)c1noc(-c2cc(C(C)C)c(O)cc2O)c1NC(=O)CCCCC[n+]1ccccc1.[Br-]`, which IC50 [1] is on record?
Answer: 10 µM

Question: What about the IC50 (HCT-116 [3]) of the same molecule?
Answer: 7.86 µM

Question: What about the Drug uptake [4] of the same molecule?
Answer: Not Active

Question: And the Activity (HCT-116 [5])?
Answer: Active

Question: With `CCNC(=O)c1noc(-c2cc(C(C)C)c(O)cc2O)c1NC(=O)c1ccc(OC)cc1` as the molecule, how does the IC50 [1] read?
Answer: 0.4 µM

Question: What about the Drug uptake [2] of the same molecule?
Answer: Not Active

Question: What about the IC50 (HCT-116 [3]) of the same molecule?
Answer: 0.87 µM

Question: What about the Activity (HCT-116 [6]) of the same molecule?
Answer: Active

Question: Which IC50 [1] does the source give for `CCNC(=O)c1noc(-c2cc(C(C)C)c(O)cc2O)c1NC(=O)CCCCC(=O)NCCCNCCNCCCN` here?
Answer: 5 µM

Question: What about the Drug uptake [2] of the same molecule?
Answer: Active

Question: And the IC50 (HCT-116 [3])?
Answer: 26.7 µM

Question: What about the Drug uptake [4] of the same molecule?
Answer: Not Active

Question: And the Activity (HCT-116 [6])?
Answer: Active

Question: For `CCNC(=O)c1noc(-c2cc(C(C)C)c(O)cc2O)c1NC(=O)CCCCC[P+](c1ccccc1)(c1ccccc1)c1ccccc1.[Br-]`, which IC50 [1] is on record?
Answer: 25 µM

Question: What about the Drug uptake [2] of the same molecule?
Answer: Active

Question: What about the IC50 (HCT-116 [3]) of the same molecule?
Answer: 5.12 µM

Question: What about the Drug uptake [4] of the same molecule?
Answer: Not Active

Question: And the Activity (HCT-116 [5])?
Answer: Active

Question: What does the source list for `CCNC(=O)c1noc(-c2cc(C(C)C)c(O)cc2O)c1NC(=O)c1ccc(C(=O)NC(=N)N)cc1`?
Answer: Drug uptake [2]: Active; IC50 (HCT-116 [3]): 1.32 µM; IC50 [7]: 0.021 µM; Kd [7]: 0.0015 µM; Drug uptake [4]: Not Active; Activity (HCT-116 [8]): Active

Question: Which results are given for `COc1cccc(-c2cc(F)ccc2[C@H]2Cc3nc(N)nc(C)c3C(=O)N2)n1`?
Answer: IC50 [1]: 0.2 µM; Drug uptake [2]: Not Active; Activity (HCT-116 [6]): Active
